Here are results for 1 molecule from ChEMBL document CHEMBL5463723, “Data for DCP probe BIBO3304” (2023).

Structures are written as SMILES.

The target in this experiment is Epidermal growth factor receptor (Homo sapiens) (UniProt P00533). In words: Inhibitor of EGFRTYRKIN in the Eurofins Panlabs screen (BI) by Fluorimetry. The settings on record: Compound concentration 10.0 uM.
Chain of Epidermal growth factor receptor (Homo sapiens) (P00533 whole entry): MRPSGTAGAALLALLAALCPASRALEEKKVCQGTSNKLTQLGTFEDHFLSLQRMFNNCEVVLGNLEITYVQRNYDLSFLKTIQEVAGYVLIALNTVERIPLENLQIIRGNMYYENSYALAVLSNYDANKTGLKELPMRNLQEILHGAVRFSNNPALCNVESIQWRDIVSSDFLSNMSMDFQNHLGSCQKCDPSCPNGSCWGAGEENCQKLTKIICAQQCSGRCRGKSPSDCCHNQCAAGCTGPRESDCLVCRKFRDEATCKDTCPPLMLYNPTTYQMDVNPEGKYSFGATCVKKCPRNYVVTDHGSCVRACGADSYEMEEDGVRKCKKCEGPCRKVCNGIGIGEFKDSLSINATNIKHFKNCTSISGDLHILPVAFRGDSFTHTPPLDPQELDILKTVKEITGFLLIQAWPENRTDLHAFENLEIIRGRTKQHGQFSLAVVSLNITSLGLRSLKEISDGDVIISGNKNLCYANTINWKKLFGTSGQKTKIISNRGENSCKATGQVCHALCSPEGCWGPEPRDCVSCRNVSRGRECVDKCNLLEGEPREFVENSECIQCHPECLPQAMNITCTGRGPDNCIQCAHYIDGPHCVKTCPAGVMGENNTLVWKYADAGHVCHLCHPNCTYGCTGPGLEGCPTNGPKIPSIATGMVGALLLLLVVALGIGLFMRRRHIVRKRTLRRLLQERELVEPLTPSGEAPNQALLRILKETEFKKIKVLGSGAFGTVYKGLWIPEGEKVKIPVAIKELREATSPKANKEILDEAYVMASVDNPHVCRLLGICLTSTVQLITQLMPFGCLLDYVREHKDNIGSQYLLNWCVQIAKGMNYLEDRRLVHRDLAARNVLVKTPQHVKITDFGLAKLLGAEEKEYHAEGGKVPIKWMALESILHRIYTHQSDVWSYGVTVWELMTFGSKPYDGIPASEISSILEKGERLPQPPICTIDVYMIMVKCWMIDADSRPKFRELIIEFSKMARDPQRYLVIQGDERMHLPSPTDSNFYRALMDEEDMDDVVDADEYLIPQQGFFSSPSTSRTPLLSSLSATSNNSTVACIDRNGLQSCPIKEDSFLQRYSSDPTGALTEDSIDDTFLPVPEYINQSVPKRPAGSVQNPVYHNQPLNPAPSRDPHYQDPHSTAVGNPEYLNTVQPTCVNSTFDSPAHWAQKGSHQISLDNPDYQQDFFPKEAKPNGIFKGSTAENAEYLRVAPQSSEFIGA

Regarding `N=C(N)NCCC[C@@H](NC(=O)C(c1ccccc1)c1ccccc1)C(=O)NCc1ccc(CNC(N)=O)cc1`, the residual activity is 83%.
